{
  "source": "ChEMBL document CHEMBL5113392",
  "about": "“Novel hybrid pyrrolidinedione-thiazolidinones as potential anticancer agents: Synthesis and biological evaluation” (Eur J Med Chem, 2022)",
  "key": {"Salmon testes DNA [1]": {"test_system": "Salmon testes DNA", "assay": "Binding affinity to single stranded salmon sperm DNA assessed as increase in DNA oxidation level by measuring net change in absorbance at 10 uM incubated for 1 hr by UV based spectroscopic method", "format": "nucleic-acid assay", "details": "Salmo salar"}, "SK-MEL-5 [2]": {"test_system": "SK-MEL-5", "assay": "Anticancer activity against human SK-MEL-5 cells assessed as total growth inhibition incubated for 48 hrs by SRB assay", "format": "functional"}, "HCT-116 [3]": {"test_system": "HCT-116", "assay": "Induction of DNA damage in human HCT-116 cells assessed as tail DNA at 1 uM incubated for 2 hrs by alkaline Comet assay", "format": "functional"}, "Jurkat [4]": {"test_system": "Jurkat", "assay": "Induction of apoptosis in human Jurkat cells assessed as increase in cleaved capase-3 level at 1.5 uM for 24 hrs by Western blot analysis", "format": "functional, cell-based"}, "DU-145": {"test_system": "DU-145", "assay": "Anticancer activity against human DU-145 cells assessed as total growth inhibition incubated for 48 hrs by SRB assay", "format": "functional"}, "Hs-578T": {"test_system": "Hs-578T", "assay": "Anticancer activity against human Hs-578T cells assessed as total growth inhibition incubated for 48 hrs by SRB assay", "format": "functional"}, "HCT-116 [5]": {"test_system": "HCT-116", "assay": "Induction of DNA damage in human HCT-116 […] assessed as tail DNA at 1 uM incubated for 2 hrs in dark by Comet assay", "format": "functional"}, "Jurkat [6]": {"test_system": "Jurkat", "assay": "Induction of apoptosis in human Jurkat cells assessed as increase in Bax level at 1.5 uM for 24 hrs by Western blot analysis", "format": "functional, cell-based"}, "786-0": {"test_system": "786-0", "assay": "Anticancer activity against human 786-0 cells assessed as lethality incubated for 48 hrs by SRB assay", "format": "functional", "details": "read-out: LC50 (the source's name)"}, "SK-MEL-5 [7]": {"test_system": "SK-MEL-5", "assay": "Anticancer activity against human SK-MEL-5 cells assessed as lethality incubated for 48 hrs by SRB assay", "format": "functional", "details": "read-out: LC50 (the source's name)"}, "Jurkat [8]": {"test_system": "Jurkat", "assay": "Induction of apoptosis in human Jurkat cells assessed as decrease in Bcl-2 level at 1.5 uM for 24 hrs by Western blot analysis", "format": "functional, cell-based"}, "Lymphocyte [9]": {"test_system": "Lymphocyte", "assay": "Induction of DNA damage in mitogen activated human peripheral blood lymphocytes assessed as tail DNA at 1.5 uM incubated for 24 hrs by alkaline Comet assay", "format": "toxicity, cell-based"}, "HCT-116 [10]": {"test_system": "HCT-116", "assay": "Induction of DNA damage in human HCT-116 cells assessed as olive tail moment at 1 uM incubated for 2 hrs by alkaline Comet assay", "format": "functional"}, "KM12 [11]": {"test_system": "KM12", "assay": "Anticancer activity against human KM12 cells assessed as total growth inhibition incubated for 48 hrs by SRB assay", "format": "functional"}, "OVCAR-5": {"test_system": "OVCAR-5", "assay": "Anticancer activity against human OVCAR-5 cells assessed as lethality incubated for 48 hrs by SRB assay", "format": "functional", "details": "read-out: LC50 (the source's name)"}, "[12]": {"assay": "Selectivity index, ratio of GI50 for human HaCaT cells to GI50 for human A549 cells", "format": "toxicity", "details": "HaCaT cells versus A549 cells, read-out: RatioGI50"}, "A549": {"test_system": "A549", "assay": "Anticancer activity against human A549 cells assessed as growth inhibition incubated for 48 hrs by SRB assay", "format": "functional"}, "CAKI-1": {"test_system": "CAKI-1", "assay": "Anticancer activity against human CAKI-1 cells assessed as inhibition of cell growth at 10 uM incubated for 48 hrs by SRB assay", "format": "functional", "details": "CAKI-1, 48 h, values are per cent of control"}, "Jurkat [13]": {"test_system": "Jurkat", "assay": "Induction of DNA damage in human Jurkat cells assessed as proapoptotic inter-nucleosomal fragmentation at 1.5 uM for 24 hrs by Agarose gel electrophoresis analysis", "format": "functional, cell-based"}, "ACHN": {"test_system": "ACHN", "assay": "Anticancer activity against human ACHN cells assessed as lethality incubated for 48 hrs by SRB assay", "format": "functional", "details": "read-out: LC50 (the source's name)"}, "Jurkat [14]": {"test_system": "Jurkat", "assay": "Induction of DNA damage in human Jurkat cells assessed as olive tail moment at 1.5 uM incubated for 24 hrs by alkaline Comet assay", "format": "functional"}, "Salmon testes DNA [15]": {"test_system": "Salmon testes DNA", "assay": "Binding affinity to double stranded salmon sperm DNA assessed as increase in DNA oxidation level by measuring net change in absorbance at 10 uM incubated for 1 hr by UV based spectroscopic method", "format": "nucleic-acid assay", "details": "Salmo salar"}, "OVCAR-8": {"test_system": "OVCAR-8", "assay": "Anticancer activity against human OVCAR-8 cells assessed as lethality incubated for 48 hrs by SRB assay", "format": "functional", "details": "read-out: LC50 (the source's name)"}, "Lymphocyte [16]": {"test_system": "Lymphocyte", "assay": "Induction of DNA damage in mitogen activated human peripheral blood lymphocytes assessed as olive tail moment at 1.5 uM incubated for 24 hrs by alkaline Comet assay", "format": "toxicity, cell-based"}, "Jurkat [17]": {"test_system": "Jurkat", "assay": "Induction of DNA damage in human Jurkat cells assessed as tail DNA at 1.5 uM incubated for 24 hrs by alkaline Comet assay", "format": "functional"}, "KM12 [18]": {"test_system": "KM12", "assay": "Anticancer activity against human KM12 cells assessed as inhibition of cell growth at 10 uM incubated for 48 hrs by SRB assay", "format": "functional", "details": "KM12, 48 h, values are per cent of control"}, "HCT-116 [19]": {"test_system": "HCT-116", "assay": "Induction of DNA damage in human HCT-116 cell lysate assessed as olive tail moment at 1 uM incubated for 2 hrs in dark by Comet assay", "format": "functional"}, "Jurkat [20]": {"test_system": "Jurkat", "assay": "Induction of apoptosis in human Jurkat cells assessed as increase in Bax level at 3.5 uM for 24 hrs by Western blot analysis", "format": "functional, cell-based"}, "Jurkat [21]": {"test_system": "Jurkat", "assay": "Induction of apoptosis in human Jurkat cells assessed as increase in cleaved capase-3 level at 3.5 uM for 24 hrs by Western blot analysis", "format": "functional, cell-based"}, "Jurkat [22]": {"test_system": "Jurkat", "assay": "Induction of DNA damage in human Jurkat cells assessed as proapoptotic inter-nucleosomal fragmentation at 3.5 uM for 24 hrs by Agarose gel electrophoresis analysis", "format": "functional, cell-based"}, "Jurkat [23]": {"test_system": "Jurkat", "assay": "Induction of DNA damage in human Jurkat cells assessed as tail DNA at 3.5 uM incubated for 24 hrs by alkaline Comet assay", "format": "functional"}, "OVCAR-3": {"test_system": "OVCAR-3", "assay": "Anticancer activity against human OVCAR-3 cells assessed as inhibition of cell growth at 10 uM incubated for 48 hrs by SRB assay", "format": "functional", "details": "OVCAR-3, 48 h, values are per cent of control"}, "Jurkat [24]": {"test_system": "Jurkat", "assay": "Induction of DNA damage in human Jurkat cells assessed as olive tail moment at 3.5 uM incubated for 24 hrs by alkaline Comet assay", "format": "functional"}, "Lymphocyte [25]": {"test_system": "Lymphocyte", "assay": "Induction of DNA damage in mitogen activated human peripheral blood lymphocytes assessed as olive tail moment at 3.5 uM incubated for 24 hrs by alkaline Comet assay", "format": "toxicity, cell-based"}, "Lymphocyte [26]": {"test_system": "Lymphocyte", "assay": "Induction of DNA damage in mitogen activated human peripheral blood lymphocytes assessed as tail DNA at 3.5 uM incubated for 24 hrs by alkaline Comet assay", "format": "toxicity, cell-based"}, "Jurkat [27]": {"test_system": "Jurkat", "assay": "Induction of apoptosis in human Jurkat cells assessed as decrease in Bcl-2 level at 3.5 uM for 24 hrs by Western blot analysis", "format": "functional, cell-based"}, "NCI-H522": {"test_system": "NCI-H522", "assay": "Anticancer activity against human NCI-H522 cells assessed as inhibition of cell growth at 10 uM incubated for 48 hrs by SRB assay", "format": "functional", "details": "NCI-H522, 48 h, values are per cent of control"}},
  "note": "Active and inactive are the calls of the source. No cut-off for these calls is given here.",
  "data": [
    {"smiles": "O=C1CC(N2C(=O)/C(=C/C(Cl)=C/c3ccc([N+](=O)[O-])cc3)SC2=S)C(=O)N1c1ccc(O)cc1", "note": "(stereo not given)", "values": [
      {"measurement": "Activity", "setting": "Salmon testes DNA [1]", "value": "Active"},
      {"measurement": "TGI", "setting": "SK-MEL-5 [2]", "value": 3.66, "unit": "µM"},
      {"measurement": "Activity", "setting": "HCT-116 [3]", "value": 26.5, "unit": "%"},
      {"measurement": "Activity", "setting": "Jurkat [4]", "value": "Active"},
      {"measurement": "TGI", "setting": "DU-145", "value": 3.37, "unit": "µM"},
      {"measurement": "TGI", "setting": "Hs-578T", "value": 12.6, "unit": "µM"},
      {"measurement": "Activity", "setting": "HCT-116 [5]", "value": 13.1, "unit": "%"},
      {"measurement": "Activity", "setting": "Jurkat [6]", "value": "Active"},
      {"measurement": "CC50", "setting": "786-0", "value": 25.5, "unit": "µM"},
      {"measurement": "CC50", "setting": "SK-MEL-5 [7]", "value": 6.97, "unit": "µM"},
      {"measurement": "Activity", "setting": "Jurkat [8]", "value": "Active"},
      {"measurement": "Activity", "setting": "Lymphocyte [9]", "value": 2.92, "unit": "%"},
      {"measurement": "Activity", "setting": "HCT-116 [10]", "value": 9.84, "unit": "%"},
      {"measurement": "TGI", "setting": "KM12 [11]", "value": 4.64, "unit": "µM"},
      {"measurement": "CC50", "setting": "OVCAR-5", "value": 7.16, "unit": "µM"},
      {"measurement": "selectivity ratio", "setting": "[12]", "value": 10.2},
      {"measurement": "GI50", "setting": "A549", "value": 3.11, "unit": "µM"},
      {"measurement": "growth, % of control at 10 µM", "setting": "CAKI-1", "value": -71.4, "unit": "%"},
      {"measurement": "Activity", "setting": "Jurkat [13]", "value": "Active"},
      {"measurement": "CC50", "setting": "ACHN", "value": 5.59, "unit": "µM"},
      {"measurement": "Activity", "setting": "Jurkat [14]", "value": 8.63, "unit": "%"},
      {"measurement": "Activity", "setting": "Salmon testes DNA [15]", "value": "Active"},
      {"measurement": "CC50", "setting": "OVCAR-8", "value": "> 100", "unit": "µM"},
      {"measurement": "Activity", "setting": "Lymphocyte [16]", "value": 0.28, "unit": "%"},
      {"measurement": "Activity", "setting": "Jurkat [17]", "value": 53.4, "unit": "%"},
      {"measurement": "growth, % of control at 10 µM", "setting": "KM12 [18]", "value": -72.4, "unit": "%"},
      {"measurement": "Activity", "setting": "HCT-116 [19]", "value": 3.05, "unit": "%"}
    ]},
    {"smiles": "O=C1CC(N2C(=O)/C(=C/C(Cl)=C/c3ccc([N+](=O)[O-])cc3)SC2=S)C(=O)N1c1ccc(Cl)cc1", "note": "(stereo not given)", "values": [
      {"measurement": "Activity", "setting": "Jurkat [20]", "value": "Active"},
      {"measurement": "Activity", "setting": "Jurkat [21]", "value": "Active"},
      {"measurement": "Activity", "setting": "Jurkat [22]", "value": "Active"},
      {"measurement": "Activity", "setting": "Jurkat [23]", "value": 48.35, "unit": "%"},
      {"measurement": "growth, % of control at 10 µM", "setting": "OVCAR-3", "value": -35.4, "unit": "%"},
      {"measurement": "TGI", "setting": "Hs-578T", "value": "> 100", "unit": "µM"},
      {"measurement": "Activity", "setting": "Jurkat [24]", "value": 18.1, "unit": "%"},
      {"measurement": "Activity", "setting": "Lymphocyte [25]", "value": 0.86, "unit": "%"},
      {"measurement": "Activity", "setting": "Lymphocyte [26]", "value": 4.25, "unit": "%"},
      {"measurement": "Activity", "setting": "Jurkat [27]", "value": "Active"},
      {"measurement": "selectivity ratio", "setting": "[12]", "value": 1.56},
      {"measurement": "CC50", "setting": "OVCAR-8", "value": "> 100", "unit": "µM"},
      {"measurement": "growth, % of control at 10 µM", "setting": "NCI-H522", "value": -26.4, "unit": "%"}
    ]}
  ]
}
